Assay results published in patent US8722714B2, “Oxazolidine derivatives as NMDA antagonists” (The Honk Kong University of Science and Technology, priority 2008, dated 2014).

Tests used:
[1] = system: rat primary cortical neurons; experiment: Neuron survival assay against NMDA insult (LDH release); format: cell-based; details: NMDA 20 μM; for protection of rat primary cortical neurons from NMDA insults (LDH release, fold change vs DMSO): compounds 10-30 μg/ml, 11 DIV; for cell death (LDH release, cell cytotoxicity vs DMSO): compound 10 μg/mL, DIV 11
Method: Primary cortical and hippocampal neurons were prepared from embryonic day 18 (E18) Sprague-Dawley rats. Neurons were plated on 24-well plate (TPP, Corning) at a density of 2×10^5 cells per well using Neurobasal medium (Invitrogen) supplemented with 2% B27 (Invitrogen). Neurons at 11-12 days in vitro (12 DIV) were subjected to drug treatment. Neurons were pretreated with the test compound for 2 hours prior to NMDA treatment. 0.1 μM (+)-MK-801 Hydrogen Maleate (Sigma) was added as a positive control. Briefly, the neurons were rinsed with Locke's solution (5 mM potassium chloride, 128 mM sodium chloride, 2.7 mM calcium chloride, 1 mM di-sodium hydrogen orthophosphate, 5 mM HEPES and 10 mM glucose in Milli-Q water) without Mg^2+, and incubated with addition of glycine (10 μM) for 15 minutes. After the incubation, the neurons were co-treated with the test compound (dissolved in Locke's plus glycine solution) and NMDA (20 μM; Sigma) for 20 minutes. Neurons were rinsed with Locke's plus Mg^2+ and replaced with fresh growth medium. The cell death was assayed and quantified using the lactate dehydrogenase release assay (Roche) after 24 hours.
Embryonic rat cortical neurons (11 DIV) were treated with NMDA (20 μM) in the absence or presence of the LC series of compounds (10-30 μg/ml). […] LDH release in the medium after overnight incubation was measured and fold change was calculated when compared to the solvent control, DMSO.
Embryonic rat cortical neurons (DIV 11) were treated with NMDA (20 μM) in the absence or presence of LC-01 or LC-02 (μg/mL). LDH release in the medium after overnight incubation was measured and cell cytotoxicity was calculated in percentage when compared to the solvent control, DMSO.
Embryonic rat cortical neurons (DIV 11) were treated with NMDA (20 μM) in the absence or presence of LC-06 (μg/mL). LDH release in the medium after overnight incubation was measured and cell cytotoxicity was calculated in percentage when compared to the solvent control, DMSO.
Embryonic rat cortical neurons (11 DIV) were treated with NMDA (20 μM) in the absence or presence of LC-24 or LC-25 (μg/mL). LDH release in the medium after overnight incubation was measured and cell cytotoxicity was calculated in percentage when compared to solvent control (DMSO).

[2] = system: scopolamine-induced memory deficit mice; experiment: Morris Water Maze in scopolamine-induced memory deficit mice; format: in vivo; details: scopolamine 4 mg/kg i.p.
Method: 6-8 week old outbred male I.C.R. mice, weighing 25-35g were housed two per cage in a climatically controlled animal room (23-25° C.) under 12 hours light/dark cycling. The animals were allowed access to water and food ad lib. The mice used for the experiment were brought to particular laboratory conditions for two days. All the experiments were conducted between 14:00 and 18:00. Scopolamine hydrobromide (Sigma, USA) was dissolved in saline in 4 mg/kg and administered in a volume of 10 ml/kg body weight. The experimental mice were randomly assigned into 3 groups, each consisting of 12 mice with similar mean body weights and age. Test sample was dissolved in physiological saline before the experiments each day. Scopolamine was administered through intraperitoneal injection (i.p.) at 30 minutes before the swimming tasks to induce memory deficit. Oral administrations (p.o.) of the test compound, or saline (0.9%) was started at the first day of the task and administrated according to a volume of 10 ml/kg body weight. Oral drug administrations were 45 minutes before the swimming tasks and conducted daily for 4 consecutive days until the end of the task.
Each mouse was subjected to 4 trials per day for 4 consecutive days. […] The student t-test with repeated measures was used to analyze latency values, and calculated as the mean latency periods for each mouse. Data are expressed as means±S.E.M, *=P<0.05 and **=P<0.005 versus scopolamine.
Scopolamine (SCOP; 4 mg/kg) was first administered intra-peritoneally to mice to impair their memories. […] On each day, the time taken for the mice to detect the hidden platform in the water maze was measured, in seconds. Measurements were calculated as the mean latency periods for each mouse; n=24. Data are expressed as mean±s.e.m. and compared to Saline/SCOP group. […]
In FIG. 13, mice were first orally administered LC-24 (30 mg/kg), scopolamine (4 mg/kg) was i.p. administered to mice 15 min to impair their memories. […] On each day, the time taken for the mice to detect the hidden platform in the water maze was measured, in seconds. […]

CC[C@H]1N[C@@H](CC(C)C)C(CC)(CC)O1 [LC-02]
protection of rat primary cortical neurons from NMDA insults (LDH release, fold change vs DMSO) [1]: significantly protected
cell death (LDH release, cell cytotoxicity vs DMSO) [1]: cell death was markedly reduced
escape latency ([2]; 30 or 100 mg/kg oral): decreases escape latencies

CCCC1(CCC)O[C@@H](CC)N[C@H]1CC(C)C [LC-06]
protection of rat primary cortical neurons from NMDA insults (LDH release, fold change vs DMSO) [1]: significantly protected
cell death (LDH release, cell cytotoxicity vs DMSO) [1]: cell death was markedly reduced
escape latency ([2]; 100 mg/kg oral, 4 days): reversed the increased escape latency induced by scopolamine

CC[C@H]1N[C@@H](Cc2ccccc2)C(CC)(CC)O1 [LC-24]
protection of rat primary cortical neurons from NMDA insults (LDH release, fold change vs DMSO) [1]: significantly protected
cell death (LDH release, cell cytotoxicity vs DMSO) [1]: cell death was markedly reduced
escape latency ([2]; 30 mg/kg oral, 4 days): reduced the increased escape latency induced by scopolamine
